Results on 2 substances are retold here after article PMC7915858, “Complementary Effects of Carbamylated and Citrullinated LL37 in Autoimmunity and Inflammation in Systemic Lupus Erythematosus” (International Journal of Molecular Sciences, 2021).

For one test, the system named is SLE CD4 T-cells. Particulars: cited from earlier work. The text has this:
The activation of autoreactive T- and B-cells characterizes Systemic Lupus Erythematosus (SLE), a rare but potentially severe disease, with poor therapeutic options. In this context, a deeper knowledge of the molecular pathways leading to autoimmunity in SLE may shed light over disease aspects still neglected and uncover novel disease biomarkers and therapy targets. The human cathelicidin antimicrobial peptide, (AMP, Uniprot P49913)—also called CAP-18 or FALL-39—is encoded by the human gene CAMP. The mature form, peptide LL37, which corresponds to the COOH-terminal part of the molecule ( ...

In the next test the test system is SLE serum antibody. As to the kind of experiment: ELISA for antibody reactivity of SLE sera to carb-/cit-/native LL37 and carb-REV, and its correlation with SLEDAI. Type of test: binding, human. Particulars: for Antibody reactivity in SLE patients with renal damage versus without renal damage: N=6 with and N=44 without renal damage, Mann-Whitney, Figure S3 panel a P 0.047. As to the method:
Anti-native LL37/cit-LL37/carb-LL37 antibodies were measured as described. Briefly, 96-well flat-bottom plates (Non-Binding surface polystyrene, Corning, Glendale, AZ USA) were coated with 2 μg/mL of native LL37, cit-LL37 or carb-LL37 in carbonate buffer (0.1 M NaHCHO3, pH 9) for 2 h (or overnight) and washed four times with PBS plus 0.1% Tween-20. This washing buffer was used for washing at all steps. The blocking buffer containing 2% bovine serum albumin (BSA, Sigma) in PBS was used for at least 1 h (or overnight) to saturate unspecific binding sites. After washing, sera were diluted at various concentrations (usually at 1:100 or 1:200) in PBS + 2% BSA followed by 1 h incubation with a horseradish peroxidase–conjugated (HRP) goat anti-human IgG (Sigma-Aldrich), diluted 1:10,000 in PBS. The color was developed for 5 min with 3,3′,5,5′-tetramethylbenzidine (TMB) substrate (Sigma-Aldrich). The reaction was stopped by adding 50 μL of 2 N H2SO4 and absorbance determined at 450 nm with a reference wavelength of 540 nm. Responses were considered positive when the OD measured exceeded the mean OD values measured in healthy donors’ plasma plus two standard deviations (+2SD), calculated on the HD group values, as described.
Differences between mean values were assessed by Wilcoxon’s matched-pair signed rank test, to compare responses to antigens and control antigens in the same donor. We used Mann-Whitney test for comparison of T-cell and antibody responses between groups of patients and HD. Statistical significance was set at p < 0.05. Correlation analyses were performed by Spearman’s rank-correlation test. Data were analyzed by GraphPad Prism 7.0 or SPSS software.
In general terms: In an ELISA, binding on a coated surface is turned into a signal by an enzyme label.

For another test, the system named is SLE CD4 T-cells (CXCR5). Nature of the test: CXCR5 (TFH marker) expression on stimulated CD4 T-cells, flow cytometry. Type of test: cell-based, human. The text has this: Antibodies to CD4, CD8, CD3 conjugated with various fluorochromes (FITC, phycoerythrin (PE), peridinin-chlorophyll-protein (PerCp), allophycocyanin (APC), PE-Cy7) were from BD Biosciences or eBiosciences (San Diego, CA). For further LL37-specific T-cell characterization and B-cell characterization we used: APC-Cy7-CXCR5 (FAB190), APC or PE-CD38, CD19, CD20, CD27, antibodies, purchased from BD Biosciences, eBiosciences, Novus Biologicals (Littleton, CO), R&D (Minneapolis, MN). Appropriate isotype-matched controls were purchased from the same companies. PerCp-7-AAD was from BD Pharmingen, DAPI from Invitrogen (Thermo Fisher, Carlsbad, CA, USA).
PBMCs were purified from EDTA-treated blood, on Ficoll-Hypaque (Pharmacia Fine Chemicals, Uppsala, Sweden) and were incubated (10^5 cells/well) in 96-well-flat-bottom-microplates (BD) in T-cell-medium (RPMI 1640, 10% heat-inactivated human serum, HS, Gibco), 2 mM L-glutamine, 10 U/mL penicillin and 100 μg/mL streptomycin), with/without peptides. We performed assays on fresh cells, within 1-to-3 h from collection or on PBMCs frozen in 90% FCS−10% DMSO, whose viability we assessed by Trypan blue exclusion, with an inverted microscope. Recovery of live cells was between 65 and 85% of the frozen number. At day 3 and 5, BrdU was added (1 μg/mL). BrdU-incorporation was detected by APC-labeled anti-BrdU antibody (BD Pharmingen), after surface staining for CD4, CD3, CD8 and analyzed by flow cytometry (Gallios, BeckmanCoulter, Brea, CA, USA). Internal control for T-cell viability and proliferation was PHA treatment (2 μg/mL). SI for proliferation was calculated by dividing percent of BrdU-staining in the presence of each peptide antigen (LL37, carb-LL37, cit-LL37, LL37 reverse, REV; cit-LL37 reverse, cit-REV; carb-LL37 reverse, carb-REV) by the percent obtained in the untreated cells. SI for proliferation was considered positive when the values of percent of BrdU positive cells was three times higher than the values obtained with the control peptides (SI > 3). Assays were repeated twice with each patient. In rare cases in which background proliferation (culture with REV, cit-REV, carb-REV), exceeded antigen-specific proliferation (that is response to LL37, carb-LL37, cit-LL37), the assay was repeated three times. Concomitant phenotype analysis of LL37-responder T-cells included staining for CD3, CD4, CD8, CXCR5 (CXCR5 was assessed on BrdU/CD3/CD4-positive cells).
On the technique in general: In flow cytometry, cells or beads pass a laser one at a time.

Test [1] deals with native LL37-P1-specific T-cells (HLA-DRB1*1501 tetramer). Nature of the test: Peptide-MHC-tetramer staining of T-cells after PBMC stimulation. Type of test: cell-based, human. On the procedure: Peptide-MHC-tetramers were from ImmunAware (Denmark). Staining was performed for 40 min with 1microL of tetramer suspension at 37 °C, followed by staining for CD4 (4 °C, 20 min), without washing. After incubation with anti-CD4 antibody, cells were washed, resuspended in PBS and kept at 4 °C. Before flow cytometry-acquisition, cells were labeled with PercP-conjugated 7-AAD to exclude dead cells. The peptide-MHC-tetramers used in this study are: the HLA-DR15-P1: tetramer of HLA-DRB1*1501 LLGDFFRKSKEKIGK (corresponding to the first aa at the NH2-term of the mature native LL37), (PE-conjugated) and the control peptide-MHC-tetramer called DR15-ctr: tetramer of HLA-DRB1*1501 […]1-169-185 (PE-conjugated). The other couple of peptide-MHC-tetramers used were HLA-DRB5*0101 loaded with the same LL37 epitope as above and the control tetramer HLA-DRB5*0101 loaded with the control epitope PVSKMRMATPLLMQA (CLIP-derived).

Where [2] appears, read: 7 days carb-LL37 stimulation, control tetramer, tetramer/CXCR5 plots.
Where [3] appears, read: 7 days carb-LL37 stimulation, tetramer loaded with native LL37 epitope P1, tetramer/CXCR5 plots.

In the case of “LLGDFFR(cit)KSKEKIGKEFKR(cit)IVQR(cit)IKDFLR(cit)NLVPR(cit)TES [cit-LL37, LL37 citrullinated at all five arginine sites]”, the “Antigen efficiency in SLE compared to native LL37” value in the test on SLE CD4 T-cells is listed as “more efficient antigen in SLE than native LL37”. In addition, the “Antibody reactivity in SLE patients with renal damage versus without renal damage” value in the test with SLE serum antibody (ELISA) is “non-significant anti-cit- and anti-native-LL37 antibody increase”. In addition, in the test on SLE serum antibody (Spearman), the “Correlation of antibody reactivity with SLEDAI” value is “both responses also correlated with SLEDAI”.

In the case of “L*LGDFFRK*SK*EK*IGKEFK*RIVQRIK*DFLRNLVPRTES [carb-LL37]”, the “Correlation of CXCR5 fold-increase with anti-native LL37 antibody response” value with SLE CD4 T-cells (CXCR5) (Spearman, Figure 4e) was “significantly correlated”. For the same substance, the “Correlation of T-cell proliferation with CXCR5 up-regulation” value with SLE CD4 T-cells (CXCR5) (Spearman, Figure 3d) was “positive and significance correlation”. In addition, the “CXCR5 up-regulation on antigen-specific T-cells” value in the test on SLE CD4 T-cells (CXCR5) (fold-increase with respect to T-cells proliferating to control carb-REV) is recorded as “up-regulation of the TFH cell marker CXCR5”. Besides, the “CXCR5-positive cells among total CD3+CD4+ cells” value in the test on SLE CD4 T-cells (CXCR5) (representative plot, Figure S5b left panels) was 8.95%. In the test on SLE CD4 T-cells (CXCR5) (representative plot, Figure S5b middle panels), the “CXCR5-positive cells among CD3+CD4+BrdU+ cells” value is 39.4%. Further, in the test with SLE CD4 T-cells (CXCR5) (representative plot, Figure S5b right panels), the “CXCR5-positive cells among CD3+CD4+BrdU- cells” value is on record as 3.08%. In addition, in test [1] (setting [2]), the “Percent printed first in Figure S7b plot (gate not recoverable from text)” value is 0.0%, the “Percent printed second in Figure S7b plot (gate not recoverable from text)” value amounted to 0.19% and the “Percent printed third in Figure S7b plot (gate not recoverable from text)” value was found to be 0.01%. Besides, in test [1] (setting [3]), the “Percent printed second in Figure S7a plot (gate not recoverable from text)” value is on record as 2.00% and the “Percent printed third in Figure S7a plot (gate not recoverable from text)” value is on record as 2.20%. In addition, in test [1] (SLE PBMC stimulated, Figure 5d), the “CXCR5 expression on LL37-specific (tetramer-positive) T-cells” value is “variable but significant expression of the TFH marker CXCR5”. Also, in test [1] (SLE PBMC, tetramer staining, versus control tetramer), the “Expansion of T-cells specific for the native LL37 epitope” value is “expansion of T-cells specific for the native LL37 epitope”. The “SLE patients showing an antibody response to the antigen” value in the test with SLE serum antibody (ELISA, 2 μg/mL coated antigen, sera 1:100 or 1:200, OD 450 nm, positive: OD > mean HD + 2SD, carb-LL37 28 of 45, carb-REV 8 of 47 SLE patients) is listed as 62%. In the test on SLE serum antibody (ELISA, OD, Mann-Whitney's test), the “SLE serum antibody reactivity (OD) compared to healthy donors” value is on record as “significant SLE serum antibody reactivity”. The “Antibody reactivity in SLE patients with renal damage versus without renal damage” value with SLE serum antibody (ELISA) was “significantly higher anti-carb-LL37 antibody reactivity”. In addition, the “Correlation of antibody reactivity with SLEDAI” value in the test with SLE serum antibody (Spearman) is listed as “A significant correlation was appreciated”. Further, the “Correlation of anti-carb-LL37 with anti-cit-LL37 antibody reactivity” value with SLE serum antibody (Spearman, Figure 2c) was “correlated significantly with anti-cit-LL37 antibody reactivity”. The “Correlation of anti-carb-LL37 with anti-native LL37 antibody reactivity” value with SLE serum antibody (Spearman, Figure 2d left) was “less but still in a significant manner”.
